Earlier results, collected in US20220273652A1, “PHARMACEUTICAL COMPOSITION COMPRISING HMG-COA REDUCTASE INHIBITORS AND FENOFIBRATE” (INTAS PHARMACEUTICALS LTD., priority 2019, published 2022).

Tested on: cytochrome P450
Conditions: human hepatocytes

Substrate for cytochrome P450-based metabolism: poor substrate
Structure (SMILES): CC(C)c1nc(N(C)S(C)(=O)=O)nc(-c2ccc(F)cc2)c1/C=C/[C@@H](O)C[C@@H](O)CC(=O)O [rosuvastatin, bis[(E)-7-[4(4-fluorophenyl)-6-isopropyl-2-[methyl(methylsulfonyl)amino]-pyrimidin-5-yl](3R,5S)-3,5dihydroxyhept-6-enoic acid]]
